According to US20180344856A1, “COMPOSITIONS AND/OR ARTICLES WITH IMPROVED SOLUBILITY OF A SOLID ACTIVE” (The Procter & Gamble Company, priority 2012, published 2018):

What was measured:
[1] = Solvency of solvents for hexylresorcinol, visual check for crystals after storage; format: physicochemical; details: solute hexylresorcinol, 33.5% test solution, approximately 1:2 solute to solvent ratio, soluble = no visible crystals
Method: (§1) In the testing provided below, “soluble” (or “solubilize”), in relation to the solubility of a solid solute being tested, means that no visible crystals may be seen after a prescribed storage period at a storage condition. The storage period can vary. Suitable storage periods include about 24 hours, about 1 week, and about 30 days. Suitable storage conditions include ambient conditions or cold storage at 5° C. (approximately 1 atm). In certain embodiments, solubility may be determined after a 24 hour storage period at ambient conditions. In other embodiments, solubility may be determined after 20 days in cold storage. Other testing parameters may include storage for prolonged time periods (e.g., 30 day, 50 days, 60 days, 90 days) and at variable temperatures (e.g., 5° C., 50° C.).
The solvency of an isosorbide diester within the scope of the present invention was tested against two conventional, industry standard solvents. […] A test solution of 33.5% hexylresorcinol is prepared with heating to 70° C. Upon reaching 70° C., the examples may be mixed for about 10 minutes. Place mixtures in a covered vial and cool to the storage temperature. Solubility is evaluated for samples stored 24 hours at ambient conditions. Solubility is also evaluated for samples stored for 7 day at 5° C. followed by equilibration to ambient conditions.

[2] = Solvency of solvents for tetrahydrocurcuminoids (THC), visual check for crystals after storage; details: solute tetrahydrocurcuminoids (THC), 3% test solution, approximately 1:32 solute to solvent ratio, soluble = no visible crystals
[3] = Solvency of solvents for (S)-Equol, visual check for crystals after storage; format: physicochemical; details: solute (S)-Equol, 6% test solution, approximately 1:16 solute to solvent ratio, soluble = no visible crystals
Method: as §1
The solvency of an isosorbide diester within the scope of the present invention was tested against two conventional, industry standard solvents. […] A test solution was of 6% Equol is prepared with heating to 70° C. Upon reaching 70° C., the examples may be mixed for about 10 minutes. Place mixtures in a covered vial and cool to the storage temperature. Solubility is evaluated for samples stored 24 hours at ambient conditions. Solubility is also evaluated for samples stored for 7 day at 5° C. followed by equilibration to ambient conditions.

[4] = then equilibration to ambient conditions

CCCCCCCCCCCC(=O)N(C)CC(=O)OC(C)C [Isopropyl lauroyl sarcosinate, isopropyl lauroyl sarcosinate]
Soluble: Solubility, 24 hour rest at Ambient Conditions ([1]; heated to 70° C.) | Solubility, 7 day storage at 5° C. [1, 4] | Solubility, 24 hour rest at Ambient Conditions ([2]; heated to 70° C.) | Solubility, 7 day storage at 5° C. [2, 4] | Solubility, 24 hour rest at Ambient Conditions ([3]; heated to 70° C.) | Solubility, 7 day storage at 5° C. [3, 4]
